Laboratory results published in ChEMBL document CHEMBL4138123, “Design, synthesis and biological evaluation of novel pyrazolochalcones as potential modulators of PI3K/Akt/mTOR pathway and inducers of apoptosis in breast cancer cells” (Eur J Med Chem, 2017).

Columns and labels:
Assay type in all cases: functional
NCI-H23 [1] = assay: Cytotoxicity against human NCI-H23 cells assessed as growth inhibition after 48 hrs by sulforhodamine B assay; conditions: NCI-H23, 48 h
SF-268 = assay: Cytotoxicity against human SF268 cells assessed as growth inhibition after 48 hrs by sulforhodamine B assay; conditions: SF-268, 48 h
SK-MEL-5 [2] = assay: Cytotoxicity against human SK-MEL-5 cells assessed as growth inhibition after 48 hrs by sulforhodamine B assay; conditions: SK-MEL-5, 48 h
SK-OV-3 = assay: Cytotoxicity against human SKOV3 cells assessed as growth inhibition after 48 hrs by sulforhodamine B assay; conditions: SK-OV-3, 48 h
SN12C = assay: Cytotoxicity against human SN12C cells assessed as growth inhibition after 48 hrs by sulforhodamine B assay
SK-MEL-5 [3] = assay: Cytotoxicity against human SK-MEL-5 cells assessed as cell growth at 0.01 uM after 48 hrs by sulforhodamine B assay relative to control; conditions: SK-MEL-5, 48 h, read-out: Activity
Malme-3M = assay: Cytotoxicity against human MALME-3M cells assessed as cell growth at 0.01 uM after 48 hrs by sulforhodamine B assay relative to control; conditions: read-out: Activity
RPMI-8226 = assay: Cytotoxicity against human RPMI8226 cells assessed as cell growth at 0.01 uM after 48 hrs by sulforhodamine B assay relative to control; conditions: RPMI-8226, 48 h, read-out: Activity
MOLT-4 = assay: Cytotoxicity against human MOLT4 cells assessed as cell growth at 0.01 uM after 48 hrs by sulforhodamine B assay relative to control; conditions: MOLT-4, 48 h, read-out: Activity
BT-549 = assay: Cytotoxicity against human BT549 cells assessed as cell growth at 0.01 uM after 48 hrs by sulforhodamine B assay relative to control; conditions: BT-549, 48 h, read-out: Activity
A549 = assay: Cytotoxicity against human A549/ATCC cells assessed as cell growth at 0.1 uM after 48 hrs by sulforhodamine B assay relative to control; conditions: A549, 48 h, read-out: Activity
SW-620 [4] = assay: Cytotoxicity against human SW620 cells assessed as cell growth at 0.1 uM after 48 hrs by sulforhodamine B assay relative to control; conditions: SW-620, 48 h, read-out: Activity
M14 = assay: Cytotoxicity against human M14 cells assessed as cell growth at 0.1 uM after 48 hrs by sulforhodamine B assay relative to control; conditions: M14, 48 h, read-out: Activity
Hs-578T [5] = assay: Cytotoxicity against human Hs 578T cells assessed as cell growth at 0.1 uM after 48 hrs by sulforhodamine B assay relative to control; conditions: read-out: Activity
NCI-H522 = assay: Cytotoxicity against human NCI-H522 cells assessed as cell growth at 1 uM after 48 hrs by sulforhodamine B assay relative to control; conditions: NCI-H522, 48 h, read-out: Activity
HCT-15 = assay: Cytotoxicity against human HCT15 cells assessed as cell growth at 1 uM after 48 hrs by sulforhodamine B assay relative to control; conditions: HCT-15, 48 h, read-out: Activity
OVCAR-4 [6] = assay: Cytotoxicity against human OVCAR4 cells assessed as cell growth at 1 uM after 48 hrs by sulforhodamine B assay relative to control; conditions: OVCAR-4, 48 h, read-out: Activity
A498 = assay: Cytotoxicity against human A498 cells assessed as cell growth at 1 uM after 48 hrs by sulforhodamine B assay relative to control; conditions: A498, 48 h, read-out: Activity
TK-10 [7] = assay: Cytotoxicity against human TK10 cells assessed as cell growth at 1 uM after 48 hrs by sulforhodamine B assay relative to control; conditions: TK-10, 48 h, read-out: Activity
MDA-MB-231 = assay: Cytotoxicity against human MDA-MB-231 cells assessed as cell growth at 1 uM after 48 hrs by sulforhodamine B assay relative to control; conditions: MDA-MB-231, 48 h, read-out: Activity
MDA-MB-468 = assay: Cytotoxicity against human MDA-MB-468 cells assessed as cell growth at 1 uM after 48 hrs by sulforhodamine B assay relative to control; conditions: MDA-MB-468, 48 h, read-out: Activity
SR = assay: Cytotoxicity against human SR cells assessed as cell growth at 10 uM after 48 hrs by sulforhodamine B assay relative to control; conditions: read-out: Activity
NCI-H322M = assay: Cytotoxicity against human NCI-H322M cells assessed as cell growth at 10 uM after 48 hrs by sulforhodamine B assay relative to control; conditions: read-out: Activity
SW-620 [8] = assay: Cytotoxicity against human SW620 cells assessed as cell growth at 10 uM after 48 hrs by sulforhodamine B assay relative to control; conditions: SW-620, 48 h, read-out: Activity
MDA-MB-435 = assay: Cytotoxicity against human MDA-MB-435 cells assessed as cell growth at 10 uM after 48 hrs by sulforhodamine B assay relative to control; conditions: MDA-MB-435, 48 h, read-out: Activity
UACC-62 = assay: Cytotoxicity against human UACC62 cells assessed as cell growth at 10 uM after 48 hrs by sulforhodamine B assay relative to control; conditions: UACC-62, 48 h, read-out: Activity
Hs-578T [9] = assay: Cytotoxicity against human Hs 578T cells assessed as cell growth at 10 uM after 48 hrs by sulforhodamine B assay relative to control; conditions: read-out: Activity
CCRF-CEM = assay: Cytotoxicity against human CCRF-CEM cells assessed as cell growth at 100 uM after 48 hrs by sulforhodamine B assay relative to control; conditions: read-out: Activity
NCI-H226 = assay: Cytotoxicity against human NCI-H226 cells assessed as cell growth at 100 uM after 48 hrs by sulforhodamine B assay relative to control; conditions: NCI-H226, 48 h, read-out: Activity
NCI-H23 [10] = assay: Cytotoxicity against human NCI-H23 cells assessed as cell growth at 100 uM after 48 hrs by sulforhodamine B assay relative to control; conditions: NCI-H23, 48 h, read-out: Activity
HCT-116 = assay: Cytotoxicity against human HCT116 cells assessed as cell growth at 100 uM after 48 hrs by sulforhodamine B assay relative to control; conditions: HCT-116, 48 h, read-out: Activity
OVCAR-4 [11] = assay: Cytotoxicity against human OVCAR4 cells assessed as cell growth at 100 uM after 48 hrs by sulforhodamine B assay relative to control; conditions: OVCAR-4, 48 h, read-out: Activity
NCI/ADR-RES = assay: Cytotoxicity against human NCI/ADR-RES cells assessed as cell growth at 100 uM after 48 hrs by sulforhodamine B assay relative to control; conditions: read-out: Activity
TK-10 [12] = assay: Cytotoxicity against human TK10 cells assessed as cell growth at 100 uM after 48 hrs by sulforhodamine B assay relative to control; conditions: TK-10, 48 h, read-out: Activity
[13] = read-out: LC50 (the source's name)

For `COc1ccc(-c2cc(/C=C/C(=O)c3ccc4c(c3)OCO4)[nH]n2)cc1OC`, the GI50 (NCI-H23 [1]) was 2.25 µM, the GI50 (SF-268) was 2.09 µM and the GI50 (SK-MEL-5 [2]) was 1.58 µM. The GI50 (SK-OV-3) was 3.13 µM and the GI50 (SN12C) was 4.96 µM.

`COc1cc(-c2cc(/C=C/C(=O)c3ccc(N)cc3)[nH]n2)cc(OC)c1OC` showed a GI50 (NCI-H23 [1]) of 2.48 µM, a TGI (NCI-H23 [1]) of 6.79 µM and a CC50 (NCI-H23 [1]; [13]) of 73.2 µM. It also gave a GI50 (SF-268) of 1.69 µM, a TGI (SF-268) of 3.93 µM and a CC50 (SF-268; [13]) of 9.16 µM. It also gave a GI50 (SK-MEL-5 [2]) of 1.65 µM, an LC50 (concentration killing 50% of cells) (SK-MEL-5 [2]) of 5.69 µM and a TGI (SK-MEL-5 [2]) of 3.06 µM. The GI50 (SK-OV-3) was 2.99 µM, the LC50 (SK-OV-3) was 28.9 µM and the TGI (SK-OV-3) was 8.32 µM. The GI50 (SN12C) was 1.86 µM, the LC50 (SN12C) was 13.4 µM and the TGI (SN12C) was 4.52 µM. The growth at 0.01 µM (SK-MEL-5 [3]) was 95%, the growth at 0.01 µM (Malme-3M) was 98% and the growth at 0.01 µM (RPMI-8226) was 98%. It also gave a growth at 0.01 µM (MOLT-4) of 101%, a growth at 0.01 µM (BT-549) of 85% and a growth at 0.1 µM (A549) of 94%. It also gave a growth at 0.1 µM (SW-620 [4]) of 95%, a growth at 0.1 µM (M14) of 101% and a growth at 0.1 µM (Hs-578T [5]) of 88%. It also gave a growth at 1 µM (NCI-H522) of 77%, a growth at 1 µM (HCT-15) of 60% and a growth at 1 µM (OVCAR-4 [6]) of 62%. It also gave a growth at 1 µM (A498) of 76%, a growth at 1 µM (TK-10 [7]) of 102% and a growth at 1 µM (MDA-MB-231) of 70%. It also gave a growth at 1 µM (MDA-MB-468) of 50%, a growth at 10 µM (SR) of -18% and a growth at 10 µM (NCI-H322M) of -32%. For the same molecule, the growth at 10 µM (SW-620 [8]) was -20%, the growth at 10 µM (MDA-MB-435) was -86% and the growth at 10 µM (UACC-62) was -69%. For the same molecule, the growth at 10 µM (Hs-578T [9]) was 29%, the growth at 100 µM (CCRF-CEM) was -21% and the growth at 100 µM (NCI-H226) was -59%. For the same molecule, the growth at 100 µM (NCI-H23 [10]) was -55%, the growth at 100 µM (HCT-116) was -73% and the growth at 100 µM (OVCAR-4 [11]) was -96%. For the same molecule, the growth at 100 µM (NCI/ADR-RES) was -3% and the growth at 100 µM (TK-10 [12]) was -81%.
